Data on 15 compounds can be found in patent US12275729B2 (Merck Sharp & Dohme LLC, priority 2017, dated 2025).

The target of one test is IDO1 (Homo sapiens, UniProt P14902). Description: IDO1 Cellular Assay in HeLa Cells Stimulated with IFNγ. It counts as cell-based. Conditions: about 48 hours, read-out: Hela IC50. Here is the method: Biological Assays IDO1 Cellular Assay in HeLa Cells Stimulated with IFNγ
Chain of IDO1 (P14902 whole entry): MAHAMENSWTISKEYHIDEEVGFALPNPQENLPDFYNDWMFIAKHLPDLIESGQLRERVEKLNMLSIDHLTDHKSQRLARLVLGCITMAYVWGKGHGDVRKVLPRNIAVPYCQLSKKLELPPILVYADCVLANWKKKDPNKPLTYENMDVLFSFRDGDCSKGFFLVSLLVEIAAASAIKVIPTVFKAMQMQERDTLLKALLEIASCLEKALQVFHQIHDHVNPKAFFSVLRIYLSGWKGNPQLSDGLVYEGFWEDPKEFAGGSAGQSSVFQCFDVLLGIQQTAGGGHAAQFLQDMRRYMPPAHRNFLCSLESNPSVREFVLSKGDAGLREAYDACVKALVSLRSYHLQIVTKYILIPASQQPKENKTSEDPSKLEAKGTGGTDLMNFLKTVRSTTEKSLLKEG
HeLa cells were cultured in complete HeLa culture medium (90% EMEM, 10% heat-inactivated fetal bovine serum) and expanded to about 1×10^9 cells. The cells were then collected and frozen down at 1×10^7 cells/vial in 1 mL frozen medium (90% complete HeLa culture medium, 10% DMSO).
Compounds to be tested were serially diluted in ten 3-fold steps in DMSO starting from 10 mM DMSO stocks in Echo low volume plate(s).
Frozen HeLa cells were thawed and transferred into HeLa assay medium (99% complete HeLa culture medium, 1% Pen/Strep) with 20 mL medium/vial of cells. The cells were spun down at 250 g in a table top centrifuge for 5 min and suspended in same volume of HeLa assay medium. The cells were then counted and adjusted to a density of 2×10^5 cells/mL in HeLa assay medium. Sterile L-tryptophan were added to the cells with final concentration of 300 uM L-tryptophan. A small aliquot (2 mL/plate) of HeLa cells were set aside and were not treated with IFNγ, to serve as the Max-E control.
HeLa cells with and without IFNγ were dispensed to the respective wells of 384-well assay plates containing the compounds. The plates were incubated for about 48 hours at a 37° C., 5% CO2 incubator. Afterwards, 12 μL of 0.5 M methyl isonipecotate in dimethyl sulfoxide were added into each well and the plates were sealed and incubated at 37° C. without CO2 overnight. The plates were centrifuged for 1 min at 200×g. The resulting fluorescence was measured in a Spectramax plate reader (Molecular Devices) with a 400 nm excitation filter and a 510 nm emission filter.
Potencies were calculated by […] least squares fit to the four parameter logistic IC50 equation.
In general, IC50 refers to the concentration at which inhibition is half-maximal. With `CC(C)CC(=O)N1CCCc2cc(CNC(=O)c3ccc(C(C)C)cc3)ccc21` [Example 3, N-{[1-(3-methylbutanoyl)-1,2,3,4-tetrahydroquinolin-6-yl]methyl}-4-(propan-2-yl)benzamide], the half-maximal inhibitory concentration (IC50) was determined as 209 nM.

`O=C(NC1(c2ccc3c(n2)CCCN3C(=O)C2CC2)CC1)c1ccc(F)cc1` [Example 168, N-{1-[5-(cyclopropanecarbonyl)-5,6,7,8-tetrahydro-1,5-naphthyridin-2-yl]cyclopropyl}-4-fluorobenzamide]: the IC50 was found to be 25.7 nM.

As for `C[C@@H](NC(=O)c1ccc(F)cc1)c1ccc2c(n1)CCCN2C(=O)[C@@H]1CC1(F)F` (single isomer, unassigned) [Example 135], the IC50 is 414 nM.

Take `CC(C)c1cc(C(=O)NCc2ccc3c(c2)CCCN3C(=O)c2cccc(Cl)c2)on1` [Example 18, N-{[1-(3-chlorobenzene-1-carbonyl)-1,2,3,4-tetrahydroquinolin-6-yl]methyl}-3-(propan-2-yl)-1,2-oxazole-5-carboxamide]: the half-maximal inhibitory concentration (IC50) was found to be 186 nM.

As for `C[C@@H](C(=O)Nc1ccc(F)cn1)c1ccc2c(c1)CCCN2C(=O)C1CC1` (single isomer, unassigned) [Example 60], the IC50 stood at 124 nM.

In the case of `CC(C)n1cc(C(=O)NCc2ccc3c(c2)CCCN3C(=O)c2cccc(Cl)c2)cn1` [Example 19, N-{[1-(3-chlorobenzene-1-carbonyl)-1,2,3,4-tetrahydroquinolin-6-yl]methyl}-1-(propan-2-yl)-1H-pyrazole-4-carboxamide], the IC50 stood at 435 nM.

`CC(C)CC(=O)N1CCCc2cc(CNC(=O)c3ccc(I)cc3)ccc21` [Example 12, 4-iodo-N-{[1-(3-methylbutanoyl)-1,2,3,4-tetrahydroquinolin-6-yl]methyl}benzamide]: the IC50 worked out at 21.1 nM.

In the case of `O=C(NC1(c2ccc3c(n2)CCCN3C(=O)C2CCOCC2)CC1)c1ccc(F)cc1` [Example 172, 4-fluoro-N-{1-[5-(oxane-4-carbonyl)-5,6,7,8-tetrahydro-1,5-naphthyridin-2-yl]cyclopropyl}benzamide], the IC50 amounted to 16.1 nM.

`CC(C(=O)Nc1ccc(F)cc1)c1ccc2c(n1)CCCN2C(=O)C1CCOCC1` (stereo not drawn) [Example 166, N-(4-fluorophenyl)-2-[5-(oxane-4-carbonyl)-5,6,7,8-tetrahydro-1,5-naphthyridin-2-yl]propanamide]: the 50% inhibitory concentration (IC50) was 16.7 nM.

As to `CC(C)(C(=O)Nc1ccc(F)cc1)c1ccc2c(n1)CCCN2C(=O)C1CC1` [Example 184, 2-[5-(cyclopropanecarbonyl)-5,6,7,8-tetrahydro-1,5-naphthyridin-2-yl]-N-(4-fluorophenyl)-2-methylpropanamide], the IC50 is 10.8 nM.

Take `CC(NC(=O)c1ccc(F)cc1)c1ccc2c(n1)C(=O)CCN2C(=O)C1CC1` (stereo not drawn) [Example 192, N-(1-(5-(cyclopropanecarbonyl)-8-oxo-5,6,7,8-tetrahydro-1,5-naphthyridin-2-yl)ethyl)-4-fluorobenzamide]: the IC50 came out at 825 nM.

As for `O=C(Nc1ccc(F)cn1)C1(c2ccc3c(c2)CCCN3S(=O)(=O)C2CC2)CCC1` [Example 124, 1-[1-(cyclopropylsulfonyl)-1,2,3,4-tetrahydroquinolin-6-yl]-N-(5-fluoropyridin-2-yl)cyclobutane-1-carboxamide], the IC50 was 26.2 nM.

Turning to `COc1ccc(C(=O)NCc2ccc3c(c2)CCCN3C(=O)CC(C)C)cc1` [Example 6, 4-methoxy-N-{[1-(3-methylbutanoyl)-1,2,3,4-tetrahydroquinolin-6-yl]methyl}benzamide], the half-maximal inhibitory concentration (IC50) stood at 56.4 nM.

The same test, now with this note: read-out: Hela IC50.
Turning to `CC(NC(=O)c1ccc(F)cc1)c1ccc2c(n1)CCCN2C(=O)OC(C)c1cccnc1` (stereo not drawn) [Example 318, 1-(pyridin-3-yl)ethyl 6-(1-(4-fluorobenzamido)ethyl)-3,4-dihydro-1,5-naphthyridine-1(2H)-carboxylate], the IC50 was determined as 19.8 nM.

For the compound `CC(NC(=O)c1ccc(F)cc1)c1ccc2c(n1)CCCN2c1ccc(F)cn1` (stereo not drawn) [Example 376, 4-fluoro-N-(1-(5-(5-fluoropyridin-2-yl)-5,6,7,8-tetrahydro-1,5-naphthyridin-2-yl)ethyl)benzamide], the concentration for half-maximal inhibition (IC50) turned out to be 99.6 nM.
